In the first assay the target is human PAD4 (Homo sapiens (Human), UniProt Q9UM07). Description: In Vitro PAD4 BAEE Biochemical Assay. The conditions noted are these: human PAD4, BAEE substrate; 5 nM PAD4, 2 mM calcium chloride, 3 mM BAEE; geometric mean of multiple experiments. The method, then: The PCR product was ligated into linearized pET-SUMO vector (Invitrogen, Carlsbad, CA), which is part of the Champion™ pET SUMO Protein Expression System. After sequence verification for the correct orientation, the pET-SUMO-hPAD4 expression plasmid was transformed into BL21(DE3) cells.
human PAD4, sequence (Q9UM07 2-663): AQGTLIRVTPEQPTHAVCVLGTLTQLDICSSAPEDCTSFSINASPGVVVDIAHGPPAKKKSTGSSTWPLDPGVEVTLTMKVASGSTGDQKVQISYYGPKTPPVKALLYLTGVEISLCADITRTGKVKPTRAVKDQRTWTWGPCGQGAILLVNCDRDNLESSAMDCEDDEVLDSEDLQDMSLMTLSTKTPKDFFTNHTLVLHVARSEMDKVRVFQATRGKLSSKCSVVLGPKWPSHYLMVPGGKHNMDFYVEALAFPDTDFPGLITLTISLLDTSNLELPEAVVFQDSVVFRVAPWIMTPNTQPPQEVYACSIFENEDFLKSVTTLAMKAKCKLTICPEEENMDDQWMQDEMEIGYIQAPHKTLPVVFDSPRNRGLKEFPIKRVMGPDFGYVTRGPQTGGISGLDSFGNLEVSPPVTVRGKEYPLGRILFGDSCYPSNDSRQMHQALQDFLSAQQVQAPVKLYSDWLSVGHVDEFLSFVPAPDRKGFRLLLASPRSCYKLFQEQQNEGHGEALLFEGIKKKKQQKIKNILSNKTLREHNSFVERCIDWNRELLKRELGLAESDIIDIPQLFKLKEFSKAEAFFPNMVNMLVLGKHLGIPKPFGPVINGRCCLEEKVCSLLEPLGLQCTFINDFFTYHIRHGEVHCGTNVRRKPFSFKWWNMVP
E. Coli BL21(DE3) cells were inoculated in LB medium with kanamycin at 37° C. until A600 nm reached about 0.5. Protein expression was induced by addition of 0.5 mM IPTG (final) and continued overnight at 16° C. at 220 rpm.
Cells were harvested by centrifugation at 5000 rpm for 10 minutes at 4° C. The pellet was resuspended in 300 ml lysis buffer (20 mM Tris-HCl, pH 8.0, 1 mM EDTA, 500 mM NaCl, 1 mM (tris(2-carboxyethyl)phosphine) (TCEP), 10% glycerol, and 1% Triton X100 and EDTA free protease inhibitor) and lysed by 3× passage through a microfluidizer (Microfluidics, Newton, MA) at 18,000 psi. The cell lysate was clarified by centrifugation at 30,000 rpm for 60 minutes at 4° C. The supernatant was applied to a 5 ml Ni-HP (GE HealthCare Cat #17524701) column preequilibrated in Ni-A buffer (20 mM Tris-HCl, pH 8.0, 20 mM Imidazole, 1 mM TCEP, 10% glycerol, and 400 mM NaCl). Bound protein was eluted with a 0-100% linear gradient of 100 mL Ni-B buffer (Ni A buffer+0.5 M Imidazole).
The His-Sumo tag was cleaved using sumo protease (Thermo Fisher Cat #: 12588018) while dialyzing in buffer (20 mM Tris-HCl, pH 8.0, 1 mM EDTA, 500 mM NaCl, 1 mM TCEP, 10% glycerol). The protein was then reloaded onto a Ni-HP column for a reverse purification step and recovered in flow through fraction. The protein with His-Sumo tag removed was then polished using a 16/60 Superdex-200 gel filtration column with gel filtration buffer (20 mM Tris pH 8.0, NaCl 400 mM and 1 mM TCEP). The fractions containing the protein were pulled and frozen at −80° C.
In Vitro PAD4 BAEE Biochemical Assay
The enzymatic activity of human PAD4 was monitored in a biochemical assay in the presence or absence of compounds using the small peptidyl arginine mimic BAEE (Nα-Benzoyl-L-arginine ethyl ester hydrochloride) as substrate. PAD4 activity led to deimination of BAEE and release of ammonia. Levels of ammonia were monitored by using an amine coupling reaction and were indicative of PAD4 enzymatic activity.
One hundred nanoliters of test compounds dissolved in DMSO at various concentrations were dispensed into a 384-well black OptiPlate using a Labcyte Echo instrument. Ten microliters of a solution of recombinant PAD4 and calcium chloride diluted in PAD4 assay buffer (50 mM MOPS [3-(N-morpholino) propanesulfonic acid], pH 7.6; 50 mM sodium chloride; 0.05% Tween-20; 2 mM dithiothreitol) was added to the compound-containing plate and was incubated for 30 minutes at 25° C. Ten microliters of a solution of BAEE (Sigma-Aldrich #B4500) diluted in PAD4 assay buffer was then added to start the reaction. Final concentrations were 5 nM PAD4, 2 mM calcium chloride, and 3 mM BAEE. The reaction mixture was incubated at 25° C. for 2 hours and was stopped with the addition of 10 microliters of a solution of 75 mM EDTA (Ethylenediaminetetraacetic acid) in PAD4 assay buffer. Thirty microliters of detection solution (5 mM o-phthalaldehyde, 50 mM MOPS [3-(N-morpholino) propanesulfonic acid], pH 7.6; 50 mM sodium chloride; 0.05% Tween-20; 5 mM dithiothreitol) was then added and the reaction was incubated for 1 hour at 25° C. The level of fluorescent thiol-substituted isoindole resulting from the reaction of ammonia, o-phthalaldehyde, and dithiothreitol was measured on an Envision plate reader (PerkinElmer) with 405 nm excitation and 535 nm emission.
In the case of `COc1cc(C(=O)N2[C@H]3CC[C@@H]2[C@H](N)C3)cc2nc(-c3cc4cc(F)c(CCNC(=O)C56CC(F)(C5)C6)cc4n3CC3CC3)n(C)c12` [Example 146, N-((R)-2-(2-(5-((1R,2R,4S)-2-amino-7-azabicyclo[2.2.1]heptane-7-carbonyl)-7-methoxy-1-methyl-1H-benzo[d]imidazol-2-yl)-1-(cyclopropylmethyl)-5-fluoro-1H-indol-6-yl)ethyl)-3-fluorobicyclo[1.1.1]pentane-1-carboxamide], the IC50 is 45.8 nM.

On to `COc1cc(C(=O)N2CCCC3(CCCN3)C2)cc2nc(-c3cc4ccc(N(C(F)F)S(C)(=O)=O)nc4n3CC3CC3)n(C)c12` (stereo not drawn) [Example 74, N-(1-(cyclopropylmethyl)-2-(7-methoxy-1-methyl-5-(1,7-diazaspiro[4.5]decane-7-carbonyl)-1H-benzo[d]imidazol-2-yl)-1H-pyrrolo[2,3-b]pyridin-6-yl)-N-(difluoromethyl) methanesulfonamide], for which the IC50 was 50000 nM.

Regarding `COc1cc(C(=O)N2C[C@H](N)CC[C@@H]2C)cc2nc(-c3cc4ccc(N5CCCCC5=O)nc4n3CC3CC3)n(C)c12` [Example 272, 1-(2-(5-((2S,5R)-5-amino-2-methylpiperidine-1-carbonyl)-7-methoxy-1-methyl-1H-benzo[d]imidazol-2-yl)-1-(cyclopropylmethyl)-1H-pyrrolo[2,3-b]pyridin-6-yl)piperidin-2-one], the IC50 came to 785 nM.

For the compound `COc1cc(C(=O)N2CCC[C@@H](N)C2)cc2nc(-c3cc4ccc([C@@H](C)NC(=O)C(C)(C)C)nc4n3CC3CC3)n(C3CC3)c12` [Example 128, N-((R)-1-(2-(5-((R)-3-aminopiperidine-1-carbonyl)-1-cyclopropyl-7-methoxy-1H-benzo[d]imidazol-2-yl)-1-(cyclopropylmethyl)-1H-pyrrolo[2,3-b]pyridin-6-yl)ethyl)pivalamide], the IC50 was 61.5 nM.

For `COc1cc(C(=O)N2[C@H]3CC[C@@H]2[C@H](N)C3)cc2nc(-c3cc4ccc([C@H]5CCCN5C(=O)N5CCCC5)nc4n3CC3CC3)n(C)c12` [Example 248, ((R)-2-(2-(5-((1R,2R,4S)-2-amino-7-azabicyclo[2.2.1]heptane-7-carbonyl)-7-methoxy-1-methyl-1H-benzo[d]imidazol-2-yl)-1-(cyclopropylmethyl)-1H-pyrrolo[2,3-b]pyridin-6-yl)pyrrolidin-1-yl)(pyrrolidin-1-yl)methanone], the IC50 came out at 40.5 nM.

As for `COc1cc(C(=O)N[C@H]2CNC[C@@H]2NC(C)=O)cc2nc(-c3cc4ccc(N(C(F)F)S(C)(=O)=O)nc4n3CC3CC3)n(C)c12` [Example 70, N-((3S,4S)-4-acetamidopyrrolidin-3-yl)-2-(1-(cyclopropylmethyl)-6-((N-(difluoromethyl)methyl)sulfonamido)-1H-pyrrolo[2,3-b]pyridin-2-yl)-7-methoxy-1-methyl-1H-benzo[d]imidazole-5-carboxamide], the IC50 worked out at 39400 nM.

For `COc1cc(C(=O)N2C[C@H](N)CCN2C)cc2nc(-c3cc4ccc([C@@H](C)NC(=O)c5ccccc5C)nc4n3CC3CC3)n(C)c12` [Example 194, N-((R)-1-(2-(5-((R)-5-amino-2-methylhexahydropyridazine-1-carbonyl)-7-methoxy-1-methyl-1H-benzo[d]imidazol-2-yl)-1-(cyclopropylmethyl)-1H-pyrrolo[2,3-b]pyridin-6-yl)ethyl)-2-methylbenzamide], the concentration for half-maximal inhibition (IC50) is 123 nM.

`COc1cc(C(=O)N2CCC[C@@H](N)C2)cc2nc(-c3cc4ccc(NC(C)(C)C)nc4n3CC3CC3)n(C)c12` [Example 278, (R)-(3-aminopiperidin-1-yl)(2-(6-(tert-butylamino)-1-(cyclopropylmethyl)-1H-pyrrolo[2,3-b]pyridin-2-yl)-7-methoxy-1-methyl-1H-benzo[d]imidazol-5-yl)methanone]: the 50% inhibitory concentration (IC50) was 9340 nM.

As for `COc1cc(C(=O)N2CCC[C@@H](N)C2)cc2nc(-c3cc4cc(F)c([C@@H](C)NC(=O)C56CC(F)(C5)C6)cc4n3CC3CC3)n(C)c12` [Example 145, N-((R)-1-(2-(5-((R)-3-aminopiperidine-1-carbonyl)-7-methoxy-1-methyl-1H-benzo[d]imidazol-2-yl)-1-(cyclopropylmethyl)-5-fluoro-1H-indol-6-yl)ethyl)-3-fluorobicyclo[1.1.1]pentane-1-carboxamide], the 50% inhibitory concentration (IC50) worked out at 62.8 nM.

On to `COc1cc(C(=O)N2[C@H]3CC[C@@H]2[C@H](N)C3)cc2nc(-c3cc4ccc([C@@H](C)NC(=O)c5ccc(F)cc5)nc4n3CC3CC3)n(C)c12` [Example 208, N-((R)-1-(2-(5-((1R,2R,4S)-2-amino-7-azabicyclo[2.2.1]heptane-7-carbonyl)-7-methoxy-1-methyl-1H-benzo[d]imidazol-2-yl)-1-(cyclopropylmethyl)-1H-pyrrolo[2,3-b]pyridin-6-yl)ethyl)-4-fluorobenzamide], for which the IC50 came to 138 nM.

`COc1cc(C(=O)N2[C@H]3CC[C@@H]2[C@H](N)C3)cc2nc(-c3cc4ccc(-n5c(C)cccc5=O)nc4n3CC3CC3)n(C)c12` [Example 255, 1-(2-(5-((1R,2R,4S)-2-amino-7-azabicyclo[2.2.1]heptane-7-carbonyl)-7-methoxy-1-methyl-1H-benzo[d]imidazol-2-yl)-1-(cyclopropylmethyl)-1H-pyrrolo[2,3-b]pyridin-6-yl)-6-methylpyridin-2(1H)-one]: the IC50 is 40.2 nM.

As for `COc1cc(C(=O)N2[C@H]3CC[C@@H]2[C@H](N)C3)cc2nc(-c3cc4ccc([C@@H](C)NC(=O)c5cnc(C)o5)cc4n3CC3CC3)n(C)c12` [Example 138, N-((R)-1-(2-(5-((1R,2R,4S)-2-amino-7-azabicyclo[2.2.1]heptane-7-carbonyl)-7-methoxy-1-methyl-1H-benzo[d]imidazol-2-yl)-1-(cyclopropylmethyl)-1H-indol-6-yl)ethyl)-2-methyloxazole-5-carboxamide], the IC50 was determined as 27.6 nM.

For `COc1cc(C(=O)N[C@H]2CCNC2)cc2nc(-c3cc4ccc(N(C(F)F)S(C)(=O)=O)nc4n3CC3CC3)n(C)c12` [Example 88, (S)-2-(1-(cyclopropylmethyl)-6-((N-(difluoromethyl)methyl)sulfonamido)-1H-pyrrolo[2,3-b]pyridin-2-yl)-7-methoxy-1-methyl-N-(pyrrolidin-3-yl)-1H-benzo[d]imidazole-5-carboxamide], the IC50 worked out at 50000 nM.

As for `CCN(c1ccc2cc(-c3nc4cc(C(=O)N5C[C@H](N)CC[C@@H]5C)cc(OC)c4n3C)n(CC3CC3)c2n1)S(C)(=O)=O` [Example 30, N-(2-(5-((2S,5R)-5-amino-2-methylpiperidine-1-carbonyl)-7-methoxy-1-methyl-1H-benzo[d]imidazol-2-yl)-1-(cyclopropylmethyl)-1H-pyrrolo [2,3-b]pyridin-6-yl)-N-ethylmethanesulfonamide], the IC50 came out at 88.2 nM.

Still in this assay, the particulars now being: recombinant PAD4 5 nM, 2 mM calcium chloride, 3 mM BAEE substrate; geometric mean of multiple experiments.
Turning to `COc1cc(C(=O)N2C[C@H](N)[C@@H]3CC[C@H]2C3)cc2nc(-c3cc4ccc([C@@H](C)NC(=O)c5ccnc(C(F)(F)F)n5)nc4n3CC3CC3)n(C)c12` [Example 316, N-((R)-1-(2-(5-((1S,4R,5R)-4-amino-2-azabicyclo[3.2.1]octane-2-carbonyl)-7-methoxy-1-methyl-1H-benzo[d]imidazol-2-yl)-1-(cyclopropylmethyl)-1H-pyrrolo[2,3-b]pyridin-6-yl)ethyl)-2-(trifluoromethyl)pyrimidine-4-carboxamide], the IC50 came out at 570 nM.

What is called IC50 is the concentration that gives 50% inhibition.
